According to the supplement of paper PMC13380429:

What was measured:
Calu-3 [1] = assay: cell viability relative to DMSO; higher = less toxic; conditions: 72 h
Caco-2 [2] = assay: as above; conditions: 72 h
HepG2 [3] = assay: as above; conditions: 72 h
Vero E6 [4] = assay: as above; conditions: 72 h
U2OS [5] = assay: as above; conditions: 72 h
Calu-3 [6] = assay: relative viability EC50 (midpoint between 100% and the lowest measured viability); higher = less toxic; conditions: 72 h
Caco-2 [7] = assay: as above; conditions: 72 h
HepG2 [8] = assay: as above; conditions: 72 h
Vero E6 [9] = assay: as above; conditions: 72 h
U2OS [10] = assay: as above; conditions: 72 h
Calu-3 [11] = assay: drug sensitivity score (DSS) for viability; higher = more toxic; extreme values may be limits of the assay; conditions: 72 h
Caco-2 [12] = assay: as above; conditions: 72 h
HepG2 [13] = assay: as above; conditions: 72 h
Vero E6 [14] = assay: as above; conditions: 72 h
U2OS [15] = assay: as above; conditions: 72 h
[16] = system: A549-ACE2 infected with SARS-CoV-2; assay: SARS-CoV-2 infection rate relative to DMSO; higher = more infection; conditions: 24 h
[17] = system: A549-ACE2 infected with SARS-CoV-2; assay: morphology score (similarity to uninfected cells); higher = more like uninfected cells; conditions: 24 h
A549-ACE2 = assay: drug-induced phospholipidosis relative to tamoxifen; higher = more phospholipidosis
[18] = system: A549-ACE2 infected with SARS-CoV-2; assay: cell count relative to DMSO; higher = less toxic; conditions: 24 h

CCC(=O)NO [ZAMI-633]
cell viability [%]
Conditions | Caco-2 [2] | Calu-3 [1] | HepG2 [3] | U2OS [5] | Vero E6 [4]
1 nM | 100 | 101 | 110 | 97.5 | 110
10 nM | 96.7 | 102 | 97 | 97.9 | 95
100 nM | 93.4 | 94.2 | 104 | 92.8 | 109
1000 nM | 96.8 | 93.6 | 90.6 | 93.3 | 97.1
10000 nM | 127 | 97.2 | 85.1 | 105 | 89

Conditions | drug sensitivity score | relative viability EC50 [µM]
Caco-2 [7] | – | > 10
Caco-2 [12] | 0 | –
Calu-3 [6] | – | > 10
Calu-3 [11] | 0 | –
HepG2 [8] | – | > 10
HepG2 [13] | 0.9 | –
U2OS [10] | – | > 10
U2OS [15] | 0 | –
Vero E6 [9] | – | > 10
Vero E6 [14] | 0.1 | –

O=NO [sodium-nitrite]
cell viability [%]
Conditions | Caco-2 [2] | Calu-3 [1] | HepG2 [3] | U2OS [5] | Vero E6 [4]
1 nM | 87.7 | 94.3 | 105 | 95.4 | 106
10 nM | 93.5 | 100 | 102 | 97.1 | 113
100 nM | 94 | 102 | 97.4 | 100 | 95.2
1000 nM | 92.3 | 94.8 | 98 | 94.2 | 103
10000 nM | 97.3 | 91.8 | 101 | 97.4 | 99.2

Conditions | drug sensitivity score | relative viability EC50 [µM]
Caco-2 [7] | – | > 10
Caco-2 [12] | 0 | –
Calu-3 [6] | – | > 10
Calu-3 [11] | 0 | –
HepG2 [8] | – | > 10
HepG2 [13] | 0 | –
U2OS [10] | – | > 10
U2OS [15] | 0 | –
Vero E6 [9] | – | > 10
Vero E6 [14] | 0 | –

COc1ccc(COc2cc3oc(=O)c4cc(C(C)O)ccc4c3cc2OC)cc1 (stereo not drawn) [palomid-529]
cell viability [%]
Conditions | Caco-2 [2] | Calu-3 [1] | HepG2 [3] | U2OS [5] | Vero E6 [4]
1 nM | 107 | 111 | 97.3 | 96.3 | 101
10 nM | 94.1 | 98.9 | 100 | 105 | 100
100 nM | 96.4 | 84.8 | 101 | 94.4 | 99
1000 nM | 85.6 | 101 | 99.6 | 94 | 100
10000 nM | 93.7 | 96.2 | 102 | 99.8 | 99.7

Conditions | drug sensitivity score | relative viability EC50 [µM]
Caco-2 [7] | – | > 10
Caco-2 [12] | 0.3 | –
Calu-3 [6] | – | > 10
Calu-3 [11] | 0 | –
HepG2 [8] | – | > 10
HepG2 [13] | 0 | –
U2OS [10] | – | > 10
U2OS [15] | 0 | –
Vero E6 [9] | – | > 10
Vero E6 [14] | 0 | –

Cc1c(C)c(NCC(=O)N(C)C2CCN(Cc3ccc(C(N)=O)cc3)CC2)c(C)c(C)c1N
cell viability [%]
Conditions | Caco-2 [2] | Calu-3 [1] | HepG2 [3] | U2OS [5] | Vero E6 [4]
1 nM | 98.7 | 105 | 97.5 | 100 | 96.1
10 nM | 99.6 | 91 | 100 | 97 | 97.7
100 nM | 92.7 | 101 | 101 | 102 | 92.4
1000 nM | 96.6 | 104 | 102 | 99.2 | 101
10000 nM | 112 | 103 | 96.7 | 98.1 | 105

Conditions | drug sensitivity score | relative viability EC50 [µM]
Caco-2 [7] | – | > 10
Caco-2 [12] | 0 | –
Calu-3 [6] | – | > 10
Calu-3 [11] | 0 | –
HepG2 [8] | – | > 10
HepG2 [13] | 0 | –
U2OS [10] | – | > 10
U2OS [15] | 0 | –
Vero E6 [9] | – | > 10
Vero E6 [14] | 0 | –

O=C(Nc1ccc(-c2ccnc(Nc3ccc(N4CCOCC4)cc3)n2)cc1)C1CCCN1 (stereo not drawn) [XL019]
Conditions | SARS-CoV-2 infection rate, [16] [%] | cell count, [18] [%] | cell viability, Caco-2 [2] [%] | cell viability, Calu-3 [1] [%] | cell viability, HepG2 [3] [%] | cell viability, U2OS [5] [%] | cell viability, Vero E6 [4] [%] | morphology score, [17]
1 nM | – | – | 89.4 | 109 | 95.1 | 97.9 | 102 | –
10 nM | – | – | 99.2 | 98 | 96.3 | 97.5 | 102 | –
100 nM | – | – | 98.7 | 107 | 89.9 | 98 | 98.5 | –
0.3 µM | 100 | 98 | – | – | – | – | – | 0.04
1000 nM | – | – | 94.2 | 122 | 88.1 | 96.5 | 94.5 | –
3 µM | 101 | 99 | – | – | – | – | – | -0.09
10 µM | 86 | 109 | – | – | – | – | – | 0.26
10000 nM | – | – | 86.5 | 119 | 67.5 | 90.6 | 94.6 | –
30 µM | 46 | 109 | – | – | – | – | – | 0.33

drug-induced phospholipidosis [%], A549-ACE2
Conditions | 0.3 µM | 0.833333 µM | 3.33333 µM | 6.66667 µM | 10 µM | 30 µM
24 h | -0.79 | -8.22 | -5.43 | 0.07 | 5.79 | 96.9
48 h | 3.03 | -8.76 | -8.92 | -8.57 | -5.17 | 83.3
72 h | 5.53 | -8.19 | -8.71 | -9.82 | -6.36 | –

Conditions | drug sensitivity score | relative viability EC50 [µM]
Caco-2 [7] | – | > 10
Caco-2 [12] | 0 | –
Calu-3 [6] | – | > 10
Calu-3 [11] | 0 | –
HepG2 [13] | 2.8 | –
U2OS [10] | – | > 10
U2OS [15] | 0 | –
Vero E6 [9] | – | > 10
Vero E6 [14] | 0 | –
